According to ChEMBL document CHEMBL1201862, “PubChem BioAssay data set” (2004):
The source made the active and inactive calls.

How the values were obtained:
[1] = viability of PTEN-deleted HCT116 cells – cell-based, HCT116 PTEN knockout, dose response (AID 1047); assay type: functional;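 also: HCT116 colon tumor cells with PTEN knocked out; cells exposed to compound for 60 hours before readout; potency for loss of cell viability measured by luminescence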
[2] = NIH3T3 cell viability loss – ATP luminescence, mouse fibroblasts, counter-screen, dose response (AID 2010); assay type: functional, cell-based;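 also: cells exposed to compound for about 90 hours before reading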
[3] = acridine orange displacement from DNA – biochemical, fluorescence polarization, cherry-pick, artefact control for RAD54 inhibitor project, dose response (AID 651673); assay type: functional
[4] = molecular target: T1, DNA repair and recombination protein RAD54-like (Homo sapiens, UniProt Q92698); experiment: RAD54 Holliday junction migration blockers – biochemical, fluorescence, cherry-picked samples, dose series, confirmation (AID 651657); assay type: functional
T1 sequence (Q92698 whole entry): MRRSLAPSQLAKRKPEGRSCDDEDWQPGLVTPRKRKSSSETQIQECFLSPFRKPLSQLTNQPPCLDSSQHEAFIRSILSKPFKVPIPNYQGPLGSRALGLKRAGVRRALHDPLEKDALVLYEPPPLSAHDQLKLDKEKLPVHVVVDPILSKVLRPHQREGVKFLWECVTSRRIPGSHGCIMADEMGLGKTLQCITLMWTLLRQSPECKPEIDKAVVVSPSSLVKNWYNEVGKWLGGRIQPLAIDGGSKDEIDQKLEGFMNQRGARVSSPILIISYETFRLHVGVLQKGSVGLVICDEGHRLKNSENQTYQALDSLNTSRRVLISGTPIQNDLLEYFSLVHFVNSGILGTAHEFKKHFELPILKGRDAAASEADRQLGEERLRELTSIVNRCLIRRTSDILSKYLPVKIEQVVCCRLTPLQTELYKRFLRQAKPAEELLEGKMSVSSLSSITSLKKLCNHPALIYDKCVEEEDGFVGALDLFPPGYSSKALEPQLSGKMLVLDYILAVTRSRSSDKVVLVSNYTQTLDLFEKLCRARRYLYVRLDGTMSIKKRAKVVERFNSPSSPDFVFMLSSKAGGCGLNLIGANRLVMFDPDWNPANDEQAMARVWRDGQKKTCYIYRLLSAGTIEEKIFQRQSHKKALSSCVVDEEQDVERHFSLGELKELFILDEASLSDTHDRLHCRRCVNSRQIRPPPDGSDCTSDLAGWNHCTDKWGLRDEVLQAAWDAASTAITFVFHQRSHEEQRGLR

[5] = Counterscreen for activators of the function of SWI/SNF related, matrix associated, actin dependent regulator of chromatin, subfamily a, member 2 (SMARCA2, BRM): Luminescence-based cell-based high throughput dose response assay to identify non-selective compounds using the VP16 reporter assay.; assay type: functional
[6] = molecular target: SWI/SNF-related matrix-associated actin-dependent regulator of chromatin subfamily A member 2 (Homo sapiens, UniProt P51531); experiment: Luminescence-based cell-based high throughput dose response assay to identify activators of the function of SWI/SNF related, matrix associated, actin dependent regulator of chromatin, subfamily a, member 2 (SMARCA2, BRM).; assay type: functional
SWI/SNF-related matrix-associated actin-dependent regulator of chromatin subfamily A member 2, sequence (P51531 whole entry): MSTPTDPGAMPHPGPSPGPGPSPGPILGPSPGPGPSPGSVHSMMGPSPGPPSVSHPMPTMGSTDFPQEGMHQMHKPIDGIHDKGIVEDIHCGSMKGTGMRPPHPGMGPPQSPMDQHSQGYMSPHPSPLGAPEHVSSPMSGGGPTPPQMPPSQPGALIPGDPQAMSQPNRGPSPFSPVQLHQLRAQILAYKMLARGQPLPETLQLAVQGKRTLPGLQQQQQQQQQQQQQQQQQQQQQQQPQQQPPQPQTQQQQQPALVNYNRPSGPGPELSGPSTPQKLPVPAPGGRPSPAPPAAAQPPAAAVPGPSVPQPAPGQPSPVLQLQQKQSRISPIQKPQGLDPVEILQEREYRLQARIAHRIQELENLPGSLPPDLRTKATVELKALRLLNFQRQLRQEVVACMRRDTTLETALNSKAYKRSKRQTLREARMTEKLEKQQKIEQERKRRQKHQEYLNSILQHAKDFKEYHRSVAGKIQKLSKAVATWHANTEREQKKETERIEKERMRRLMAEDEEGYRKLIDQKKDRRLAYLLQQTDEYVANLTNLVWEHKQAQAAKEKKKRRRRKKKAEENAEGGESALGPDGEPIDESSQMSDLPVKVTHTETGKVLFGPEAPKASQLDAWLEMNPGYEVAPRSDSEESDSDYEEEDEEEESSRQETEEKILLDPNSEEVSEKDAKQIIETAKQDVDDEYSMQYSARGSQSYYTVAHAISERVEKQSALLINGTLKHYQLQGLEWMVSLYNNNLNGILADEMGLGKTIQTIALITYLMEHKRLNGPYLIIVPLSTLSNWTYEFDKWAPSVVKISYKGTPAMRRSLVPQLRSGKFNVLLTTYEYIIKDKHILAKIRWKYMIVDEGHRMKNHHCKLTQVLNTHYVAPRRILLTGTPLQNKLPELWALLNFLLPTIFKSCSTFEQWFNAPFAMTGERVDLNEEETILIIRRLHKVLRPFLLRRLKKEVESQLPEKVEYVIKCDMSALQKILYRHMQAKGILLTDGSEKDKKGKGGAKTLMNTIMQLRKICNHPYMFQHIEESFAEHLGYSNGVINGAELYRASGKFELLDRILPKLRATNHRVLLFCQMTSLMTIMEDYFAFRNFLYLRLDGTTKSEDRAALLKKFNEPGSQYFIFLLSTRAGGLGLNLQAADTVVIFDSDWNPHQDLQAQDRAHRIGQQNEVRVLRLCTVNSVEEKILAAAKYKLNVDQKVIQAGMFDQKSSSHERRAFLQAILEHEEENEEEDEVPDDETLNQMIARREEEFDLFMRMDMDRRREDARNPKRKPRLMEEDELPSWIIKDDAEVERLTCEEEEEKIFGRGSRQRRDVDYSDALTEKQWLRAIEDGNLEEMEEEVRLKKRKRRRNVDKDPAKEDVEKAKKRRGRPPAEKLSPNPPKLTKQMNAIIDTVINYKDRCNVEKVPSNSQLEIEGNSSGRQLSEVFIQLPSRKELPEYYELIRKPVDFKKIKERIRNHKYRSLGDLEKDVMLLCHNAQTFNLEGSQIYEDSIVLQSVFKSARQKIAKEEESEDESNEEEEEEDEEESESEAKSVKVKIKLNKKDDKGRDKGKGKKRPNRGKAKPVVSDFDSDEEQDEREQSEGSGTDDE

[7] = viability of HCT116 lacking mutant beta-catenin – cell-based, human colon tumor, dose response (AID 1045); assay type: functional;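 also: HCT116 colon tumor cells with beta catenin knocked out; cells exposed to compound for 60 hours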
[8] = Trypanosoma cruzi growth suppression in host cells – NIH3T3 host cells, beta-gal luminescence, confirmation (AID 2044); assay type: functional, cell-based;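 also: intracellular parasites grown in NIH/3T3 mouse fibroblasts as host cells; luminescent beta-galactosidase reporter signal from transgenic T. cruzi replicating inside host cells; inhibitors lower the luminescence signal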
[9] = molecular target: Nonstructural protein 1 (Influenza A virus, UniProt Q194T2); assay type: functional, Influenza A virus (A/California/07/2009(H1N1))
Nonstructural protein 1, sequence (Q194T2 whole entry): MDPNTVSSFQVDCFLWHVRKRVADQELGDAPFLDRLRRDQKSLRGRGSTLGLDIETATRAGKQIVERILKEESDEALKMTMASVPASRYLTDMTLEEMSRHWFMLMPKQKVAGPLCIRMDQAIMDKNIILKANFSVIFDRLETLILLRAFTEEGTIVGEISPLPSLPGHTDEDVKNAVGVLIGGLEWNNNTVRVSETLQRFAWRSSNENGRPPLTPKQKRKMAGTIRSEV

[10] = molecular target: DNA (cytosine-5)-methyltransferase 1 (Homo sapiens, UniProt P26358); experiment: inhibition of DNA methylation by DNMT1 – biochemical, fluorescent molecular beacon, confirmation (AID 602386); assay type: functional
DNA (cytosine-5)-methyltransferase 1, sequence (P26358 whole entry): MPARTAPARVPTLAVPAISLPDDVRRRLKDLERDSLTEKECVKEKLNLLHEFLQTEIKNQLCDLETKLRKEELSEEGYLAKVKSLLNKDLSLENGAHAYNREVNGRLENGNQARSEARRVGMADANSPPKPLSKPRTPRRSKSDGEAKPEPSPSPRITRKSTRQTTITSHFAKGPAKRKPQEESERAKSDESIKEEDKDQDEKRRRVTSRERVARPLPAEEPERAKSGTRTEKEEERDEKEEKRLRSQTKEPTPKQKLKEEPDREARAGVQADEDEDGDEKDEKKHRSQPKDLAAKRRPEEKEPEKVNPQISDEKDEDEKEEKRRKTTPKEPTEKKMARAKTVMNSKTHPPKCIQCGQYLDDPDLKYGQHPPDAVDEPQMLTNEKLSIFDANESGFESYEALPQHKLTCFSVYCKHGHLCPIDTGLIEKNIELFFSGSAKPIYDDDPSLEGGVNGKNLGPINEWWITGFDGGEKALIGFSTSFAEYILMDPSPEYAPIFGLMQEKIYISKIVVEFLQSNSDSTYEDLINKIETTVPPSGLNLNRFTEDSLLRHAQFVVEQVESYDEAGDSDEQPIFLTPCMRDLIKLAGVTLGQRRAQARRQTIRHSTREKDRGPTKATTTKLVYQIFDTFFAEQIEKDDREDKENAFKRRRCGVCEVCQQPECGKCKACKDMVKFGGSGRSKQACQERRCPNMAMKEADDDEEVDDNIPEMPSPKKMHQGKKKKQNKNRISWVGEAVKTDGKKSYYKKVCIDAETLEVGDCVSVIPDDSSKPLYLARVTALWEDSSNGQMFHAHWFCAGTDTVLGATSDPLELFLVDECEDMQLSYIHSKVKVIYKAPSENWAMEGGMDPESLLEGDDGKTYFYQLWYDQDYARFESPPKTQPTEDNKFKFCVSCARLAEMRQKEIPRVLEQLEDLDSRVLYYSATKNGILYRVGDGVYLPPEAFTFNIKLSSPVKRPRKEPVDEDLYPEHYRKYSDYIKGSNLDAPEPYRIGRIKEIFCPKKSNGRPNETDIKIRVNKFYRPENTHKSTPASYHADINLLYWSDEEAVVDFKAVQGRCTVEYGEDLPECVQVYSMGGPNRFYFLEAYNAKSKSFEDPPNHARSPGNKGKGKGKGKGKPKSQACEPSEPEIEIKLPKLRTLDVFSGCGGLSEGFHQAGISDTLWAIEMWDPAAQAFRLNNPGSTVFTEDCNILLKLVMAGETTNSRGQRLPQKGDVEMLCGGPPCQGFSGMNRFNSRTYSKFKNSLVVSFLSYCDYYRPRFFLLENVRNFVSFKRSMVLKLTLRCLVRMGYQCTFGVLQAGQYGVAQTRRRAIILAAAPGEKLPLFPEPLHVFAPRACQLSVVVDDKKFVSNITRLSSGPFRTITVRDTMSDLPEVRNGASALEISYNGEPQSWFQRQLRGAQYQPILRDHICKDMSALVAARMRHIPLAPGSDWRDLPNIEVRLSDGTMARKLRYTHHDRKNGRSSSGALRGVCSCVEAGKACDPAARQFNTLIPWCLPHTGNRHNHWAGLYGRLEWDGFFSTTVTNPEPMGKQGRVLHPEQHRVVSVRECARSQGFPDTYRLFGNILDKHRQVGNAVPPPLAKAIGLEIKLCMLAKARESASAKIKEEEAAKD

[11] = molecular target: Nuclear receptor subfamily 0 group B member 1 (Homo sapiens, UniProt P51843); assay type: functional, cell-based;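 also: HEK293T cells transfected with SF-1 and DAX-1 plus StAR promoter luciferase reporter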
[12] = cells; assay type: functional, cell-based
[13] = molecular target: T2, Zinc finger protein mex-5 (Caenorhabditis elegans, UniProt Q9XUB2); experiment: potency of MEX-5 RNA-binding blockers – biochemical, C. elegans, fluorescence polarization, dose response (AID 1960)
T2 sequence (Q9XUB2 whole entry): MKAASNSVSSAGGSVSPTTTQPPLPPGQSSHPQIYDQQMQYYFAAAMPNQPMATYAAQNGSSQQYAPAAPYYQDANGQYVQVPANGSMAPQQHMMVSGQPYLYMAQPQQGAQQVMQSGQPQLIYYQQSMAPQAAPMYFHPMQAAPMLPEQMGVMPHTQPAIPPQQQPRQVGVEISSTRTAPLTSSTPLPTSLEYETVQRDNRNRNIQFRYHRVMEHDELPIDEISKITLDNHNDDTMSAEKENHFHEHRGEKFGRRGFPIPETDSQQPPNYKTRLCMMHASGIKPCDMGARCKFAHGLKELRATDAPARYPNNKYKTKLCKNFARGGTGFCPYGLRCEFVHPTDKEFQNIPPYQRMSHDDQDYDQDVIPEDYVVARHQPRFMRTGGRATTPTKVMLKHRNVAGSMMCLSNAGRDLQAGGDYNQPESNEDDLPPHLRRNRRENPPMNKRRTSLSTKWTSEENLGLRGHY

[14] = molecular target: Large T antigen (Simian virus 40, UniProt P03070); assay type: functional, Betapolyomavirus macacae;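 also: Confirmatory-stage PubChem screen for compounds that inhibit SV40 T antigen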
Large T antigen, sequence (P03070 whole entry): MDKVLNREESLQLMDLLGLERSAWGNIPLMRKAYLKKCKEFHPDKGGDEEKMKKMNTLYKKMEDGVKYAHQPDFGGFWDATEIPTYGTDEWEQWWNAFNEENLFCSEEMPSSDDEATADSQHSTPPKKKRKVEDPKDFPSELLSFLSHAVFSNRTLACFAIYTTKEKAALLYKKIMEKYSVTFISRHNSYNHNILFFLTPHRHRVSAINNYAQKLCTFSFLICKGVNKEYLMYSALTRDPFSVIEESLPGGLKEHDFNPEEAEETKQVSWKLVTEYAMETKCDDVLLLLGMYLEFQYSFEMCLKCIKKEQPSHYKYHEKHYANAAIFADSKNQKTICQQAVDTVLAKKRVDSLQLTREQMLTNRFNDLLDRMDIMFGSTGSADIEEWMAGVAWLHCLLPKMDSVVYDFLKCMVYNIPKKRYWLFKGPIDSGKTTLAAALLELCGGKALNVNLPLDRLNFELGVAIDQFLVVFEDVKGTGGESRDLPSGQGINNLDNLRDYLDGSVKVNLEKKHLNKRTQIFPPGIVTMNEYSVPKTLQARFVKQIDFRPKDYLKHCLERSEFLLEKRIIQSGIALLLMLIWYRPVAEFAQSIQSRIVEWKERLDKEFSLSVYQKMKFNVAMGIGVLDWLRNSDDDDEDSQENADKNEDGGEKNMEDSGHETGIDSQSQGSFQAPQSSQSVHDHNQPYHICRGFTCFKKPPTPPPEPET

[15] = molecular target: T3, Replicative DNA helicase DnaB (Mycobacterium tuberculosis, UniProt P9WMR3); experiment: DnaB intein splicing inhibitors, dose response, biochemical, cell-free fluorescence (AID 449749); assay type: functional
T3 sequence (P9WMR3 whole entry): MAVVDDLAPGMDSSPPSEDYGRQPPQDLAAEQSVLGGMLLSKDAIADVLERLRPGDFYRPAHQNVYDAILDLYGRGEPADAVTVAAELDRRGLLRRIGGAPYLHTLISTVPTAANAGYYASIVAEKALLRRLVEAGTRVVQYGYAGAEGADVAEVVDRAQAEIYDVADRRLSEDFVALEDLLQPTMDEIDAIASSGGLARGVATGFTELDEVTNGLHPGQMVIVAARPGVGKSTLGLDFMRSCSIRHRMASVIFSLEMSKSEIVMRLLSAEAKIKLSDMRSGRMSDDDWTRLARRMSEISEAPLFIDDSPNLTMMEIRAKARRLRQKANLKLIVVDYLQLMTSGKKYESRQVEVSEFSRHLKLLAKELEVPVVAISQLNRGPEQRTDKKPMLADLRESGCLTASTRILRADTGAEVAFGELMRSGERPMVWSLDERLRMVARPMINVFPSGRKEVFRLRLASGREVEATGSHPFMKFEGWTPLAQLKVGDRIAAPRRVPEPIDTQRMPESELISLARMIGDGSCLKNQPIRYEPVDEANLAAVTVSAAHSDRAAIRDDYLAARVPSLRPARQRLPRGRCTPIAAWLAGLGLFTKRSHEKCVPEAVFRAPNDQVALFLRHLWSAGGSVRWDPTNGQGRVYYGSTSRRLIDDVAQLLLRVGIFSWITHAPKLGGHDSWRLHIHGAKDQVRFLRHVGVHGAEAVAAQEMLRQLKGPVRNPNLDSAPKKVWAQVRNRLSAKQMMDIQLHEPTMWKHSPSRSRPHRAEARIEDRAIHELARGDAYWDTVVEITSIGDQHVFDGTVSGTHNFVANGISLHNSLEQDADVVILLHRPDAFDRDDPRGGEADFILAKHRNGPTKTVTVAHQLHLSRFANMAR

[16] = molecular target: T4, Sentrin-specific protease 8 (Homo sapiens, UniProt Q96LD8); assay type: functional
T4 sequence (Q96LD8 whole entry): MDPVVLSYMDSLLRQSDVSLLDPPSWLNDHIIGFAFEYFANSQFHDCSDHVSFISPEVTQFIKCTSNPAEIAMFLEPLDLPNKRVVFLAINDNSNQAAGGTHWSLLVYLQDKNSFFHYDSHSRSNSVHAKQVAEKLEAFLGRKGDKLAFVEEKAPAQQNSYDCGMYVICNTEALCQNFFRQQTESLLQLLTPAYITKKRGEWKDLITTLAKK

[17] = molecular target: T5, Protein RecA (Mycobacterium tuberculosis, UniProt P9WHJ3); experiment: Fluorescence Cell-Free Homogeneous Dose Retest to Identify Inhibitors of RecA-Intein Splicing Activity. [Related pubchem assays (depositor defined):AID2097, AID2223, AID489010, AID492950]; assay type: functional
T5 sequence (P9WHJ3 whole entry): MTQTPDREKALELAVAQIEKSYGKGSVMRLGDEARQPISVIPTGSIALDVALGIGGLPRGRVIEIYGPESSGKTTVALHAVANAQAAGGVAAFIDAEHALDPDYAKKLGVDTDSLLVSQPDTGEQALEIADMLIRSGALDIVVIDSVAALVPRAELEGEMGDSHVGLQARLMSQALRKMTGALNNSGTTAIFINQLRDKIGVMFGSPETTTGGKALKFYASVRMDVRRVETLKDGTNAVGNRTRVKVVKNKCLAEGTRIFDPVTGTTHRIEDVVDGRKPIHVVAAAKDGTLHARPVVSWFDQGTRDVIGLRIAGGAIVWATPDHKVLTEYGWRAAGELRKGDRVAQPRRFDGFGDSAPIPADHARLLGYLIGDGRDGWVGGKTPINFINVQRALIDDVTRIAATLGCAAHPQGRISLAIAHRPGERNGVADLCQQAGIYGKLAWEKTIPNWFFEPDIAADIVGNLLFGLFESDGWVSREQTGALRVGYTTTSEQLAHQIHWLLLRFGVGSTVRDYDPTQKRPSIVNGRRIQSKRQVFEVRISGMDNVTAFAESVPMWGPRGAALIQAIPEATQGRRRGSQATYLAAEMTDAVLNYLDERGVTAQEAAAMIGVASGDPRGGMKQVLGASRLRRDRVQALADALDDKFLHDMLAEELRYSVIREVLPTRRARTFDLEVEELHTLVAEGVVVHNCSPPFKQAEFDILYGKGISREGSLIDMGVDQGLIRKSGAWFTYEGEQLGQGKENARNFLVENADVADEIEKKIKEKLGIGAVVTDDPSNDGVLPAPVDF

[18] = molecular target: T4, Sentrin-specific protease 8; assay type: functional; remark: listed apart in the source
[19] = molecular target: T6, RNA-binding protein pos-1 (Caenorhabditis elegans, UniProt G5EF15); experiment: disruptors of C. elegans POS-1 RNA interaction – biochemical, fluorescence polarization, dose response (AID 1964);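 also: purified POS-1 fused to maltose binding protein made in E. coli; potency of compounds blocking POS-1 binding to fluorescent RNA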
T6 sequence (G5EF15 whole entry): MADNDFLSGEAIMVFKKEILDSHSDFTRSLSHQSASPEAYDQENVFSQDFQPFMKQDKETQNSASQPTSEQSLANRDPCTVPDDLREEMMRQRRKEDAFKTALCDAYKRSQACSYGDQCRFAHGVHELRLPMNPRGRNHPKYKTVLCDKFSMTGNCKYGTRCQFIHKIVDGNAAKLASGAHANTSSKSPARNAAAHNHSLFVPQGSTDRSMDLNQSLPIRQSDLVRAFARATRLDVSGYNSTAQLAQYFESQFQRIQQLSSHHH

[20] = molecular target: T7, Sentrin-specific protease 1 (Homo sapiens, UniProt Q9P0U3); experiment: Dose response confirmation of small molecule inhibitors of the catalytic domain of the SUMO protease, SENP1 in a FRET assay.; assay type: functional; conditions: read-out: IC50_Mean
T7 sequence (Q9P0U3 whole entry, the tested form may be a part): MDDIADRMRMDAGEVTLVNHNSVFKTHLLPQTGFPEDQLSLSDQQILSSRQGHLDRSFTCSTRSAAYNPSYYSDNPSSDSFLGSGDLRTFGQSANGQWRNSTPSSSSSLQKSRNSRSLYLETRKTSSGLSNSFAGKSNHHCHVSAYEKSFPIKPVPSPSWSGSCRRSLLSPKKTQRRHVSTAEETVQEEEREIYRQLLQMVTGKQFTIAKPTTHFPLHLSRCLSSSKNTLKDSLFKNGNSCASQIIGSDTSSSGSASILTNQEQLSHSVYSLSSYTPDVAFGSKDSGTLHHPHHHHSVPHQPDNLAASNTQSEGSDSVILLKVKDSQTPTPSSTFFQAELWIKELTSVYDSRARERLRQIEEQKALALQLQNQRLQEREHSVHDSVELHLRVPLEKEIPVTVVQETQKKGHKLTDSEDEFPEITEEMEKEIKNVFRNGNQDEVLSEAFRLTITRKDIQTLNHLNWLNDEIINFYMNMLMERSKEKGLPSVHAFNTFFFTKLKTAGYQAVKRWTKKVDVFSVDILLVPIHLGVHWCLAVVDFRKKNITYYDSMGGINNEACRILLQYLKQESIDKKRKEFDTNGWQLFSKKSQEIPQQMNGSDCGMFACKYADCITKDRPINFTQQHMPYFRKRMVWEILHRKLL

[21] = molecular target: T7, Sentrin-specific protease 1; experiment: SENP1 catalytic domain blockers, concentration series – biochemical, kinetic FRET, dose response (AID 651697); assay type: functional; conditions: read-out: IC50_Mean

## CCN(CC)CCNc1nc2cc(OC)c(OC)cc2c2nc(-c3ccccc3)nn12
[1]
  EC50: 4.9 µM (active)
[2]
  EC50: > 30 µM (not active)
[3]
  AC50: 51.8 µM (active)
[4]
  AC50: 1.92 µM (active)
[5]
  EC50: > 91.2 µM (inactive)
[6]
  EC50: > 91.2 µM (inactive)
[7]
  EC50: 3.48 µM (active)
[8]
  EC50: 0.678 µM (active)
[9]
  IC50: > 100 µM (active)
[10]
  IC50: > 99 µM (inactive)

## O=C(COc1ccccc1)Nc1cccc(-c2ccc(N3CCOCC3)nn2)c1
[11]
  IC50: > 67.5 µM (inactive)
[12]
  IC50: > 67.5 µM (inactive)

## CCOc1cc(C(c2c(C)[nH][nH]c2=O)c2c(C)[nH][nH]c2=O)ccc1O
[13]
  EC50: 107 µM (active)
[14]
  IC50: > 100 µM (active)
[15]
  AC50: 0.302 µM (active)
[16]
  IC50: 21.4 µM (active)
[17]
  EC50: 0.24 µM (active)
[18]
  IC50: 16.2 µM (active)
[19]
  EC50: 57.9 µM (active)

## Cc1cc(C)c(Cn2c(C(=O)O)c(C=O)c3ccccc32)c(C)c1
[20]
  IC50: 20.8 µM (inactive)
[21]
  IC50: 16.9 µM (active)
